In ChEMBL document CHEMBL5113491, “Discovery of N-benzylarylamide derivatives as novel tubulin polymerization inhibitors capable of activating the Hippo pathway” (Eur J Med Chem, 2022):
Active and inactive are the calls of the source. The calls are words filed in the database; no cut-off is given here.

Key:
MGC-803 [1] = assay: Inhibition of colony formation in human MGC-803 cells measured after 7 days; assay type: functional, cell-based; details: dose 6-30 nmol/L, time 7.0 day, DDE = dose-dependent effect
MGC-803 [2] = assay: Downregulation of Axl protein expression in human MGC-803 cells at 15 to 45 nmol/L measured after 48 hrs by Western blot analysis; assay type: functional, cell-based; details: dose 15-45 nmol/L
MGC-803 [3] = assay: Induction of morphological changes in human MGC-803 cells assessed as cell fragmentation at 15 to 45 nmol/L measured after 48 hrs by bright field microscopic analysis; assay type: functional, cell-based; details: dose 15-45 nmol/L
SGC-7901 [4] = assay: Induction of morphological changes in human SGC-7901 cells assessed as cell fragmentation at 15 to 45 nmol/L measured after 48 hrs by bright field microscopic analysis; assay type: functional, cell-based; details: dose 15-45 nmol/L
SGC-7901 [5] = assay: Induction of apoptosis in human SGC-7901 cells assessed as increase in cleaved caspase 7 expression at 15 to 45 nmol/L measured after 48 hrs by Western blot analysis; assay type: functional, cell-based; details: dose 15-45 nmol/L
MGC-803 [6] = assay: Induction of morphological changes in human MGC-803 cells assessed as change in concentration of nuclei at 15 to 45 nmol/L measured after 48 hrs by DAPI staining based microscopic analysis; assay type: functional, cell-based; details: dose 15-45 nmol/L
SGC-7901 [7] = assay: Induction of morphological changes in human SGC-7901 cells assessed as change in concentration of nuclei at 15 to 45 nmol/L measured after 48 hrs by DAPI staining based microscopic analysis; assay type: functional, cell-based; details: dose 15-45 nmol/L
SGC-7901 [8] = assay: Activation of MST in human SGC-7901 cells assessed as increase in MST phosphorylation measured after 48 hrs by Western blot analysis; assay type: cell-based; details: filed as activator, dose 15-45 nmol/L, DDE = dose-dependent effect
SGC-7901 [9] = assay: Downregulation of Axl protein expression in human SGC-7901 cells at 15 to 45 nmol/L measured after 48 hrs by Western blot analysis; assay type: functional, cell-based; details: dose 15-45 nmol/L
SGC-7901 [10] = assay: Induction of apoptosis in human SGC-7901 cells assessed as decrease in Bcl-xl protein expression measured after 48 hrs by Western blot analysis; assay type: functional, cell-based; details: dose 15-45 nmol/L, DDE = dose-dependent effect
SGC-7901 [11] = assay: Induction of apoptosis in human SGC-7901 cells assessed as decrease in c-IAP1 protein expression measured after 48 hrs by Western blot analysis; assay type: functional, cell-based; details: dose 15-45 nmol/L, DDE = dose-dependent effect
MGC-803 [12] = assay: Induction of morphological changes in human MGC-803 cells assessed as increase in proportion of dead cells at 15 to 45 nmol/L measured after 48 hrs by calcein-AM/PI staining based microscopic analysis; assay type: functional, cell-based; details: dose 15-45 nmol/L
MGC-803 [13] = assay: Induction of apoptosis in human MGC-803 cells assessed as increase in cleaved caspase 9 expression at 15 to 45 nmol/L measured after 48 hrs by Western blot analysis; assay type: functional, cell-based; details: dose 15-45 nmol/L
MGC-803 [14] = assay: Antiproliferative activity against human MGC-803 cells assessed as inhibition of cell growth measured upto 72 hrs by MTT assay; assay type: functional, cell-based; details: dose 15-45 µmol/L, DDE = dose-dependent effect
SGC-7901 [15] = assay: Downregulation of TAZ protein expression in human SGC-7901 cells measured after 48 hrs by Western blot analysis; assay type: functional, cell-based; details: dose 15-45 nmol/L, DDE = dose-dependent effect
Tubulin (Homo sapiens) [16] = biological target: T1, Tubulin (Homo sapiens) (UniProt P68371+Q9H4B7+P0DPH7+P68366+Q13509+Q71U36+P04350+Q3ZCM7+P07437+P68363+Q9BQE3+Q6PEY2+Q13885+Q9BVA1+Q9BUF5); assay: Induction of microtubule disruption in human MGC-803 cells measured after 48 hrs by DAPI staining based immunofluorescence assay; assay type: cell-based; details: dose 15-45 nmol/L, DDE = dose-dependent effect
MGC-803 [17] = assay: Activation of MST in human MGC-803 cells assessed as increase in MST phosphorylation measured after 48 hrs by Western blot analysis; assay type: cell-based; details: filed as activator, dose 15-45 nmol/L, DDE = dose-dependent effect
MGC-803 [18] = assay: Induction of apoptosis in human MGC-803 cells assessed as decrease in Mcl-1 protein expression measured after 48 hrs by Western blot analysis; assay type: functional, cell-based; details: dose 15-45 nmol/L, DDE = dose-dependent effect
KYSE-450 = assay: Antiproliferative activity against human KYSE-450 cells assessed as inhibition of cell growth measured after 48 hrs by MTT assay; assay type: functional, cell-based; details: KYSE-450, 48 h
SGC-7901 [19] = assay: Downregulation of YAP protein expression in human SGC-7901 cells measured after 48 hrs by Western blot analysis; assay type: functional, cell-based; details: dose 15-45 nmol/L, DDE = dose-dependent effect
SGC-7901 [20] = assay: Induction of morphological changes in human SGC-7901 cells assessed as decrease in density at 15 to 45 nmol/L measured after 48 hrs by bright field microscopic analysis; assay type: functional, cell-based; details: dose 15-45 nmol/L
MGC-803 [21] = assay: Induction of cell apoptosis in human MGC-803 cells assessed as increase in apoptotic cells measured after 48 hrs by Annexin V/PI staining based flow cytometric analysis; assay type: functional; details: dose 15-45 nmol/L, DDE = dose-dependent effect
NCI-H520 = assay: Antiproliferative activity against human NCI-H520 cells assessed as inhibition of cell growth measured after 48 hrs by MTT assay; assay type: functional, cell-based; details: NCI-H520, 48 h
SGC-7901 [22] = assay: Antiproliferative activity against human SGC-7901 cells assessed as inhibition of cell growth at 15 to 45 […] by MTT assay; assay type: functional, cell-based; details: dose 15-45 µmol/L, time <= 72.0 hrs, TDE = time-dependent effect
HCT-116 = assay: Antiproliferative activity against human HCT-116 cells assessed as inhibition of cell growth measured after 48 hrs by MTT assay; assay type: functional, cell-based; details: HCT-116, 48 h
MGC-803 [23] = assay: Downregulation of TAZ protein expression in human MGC-803 cells measured after 48 hrs by Western blot analysis; assay type: functional, cell-based; details: dose 15-45 nmol/L, DDE = dose-dependent effect
MGC-803 [24] = assay: Induction of G2/M phase cell cycle arrest in human MGC-803 cells assessed as decrease in cyclin A2 expression at 15 to 45 nmol/L measured after 48 hrs by Western blot analysis; assay type: functional, cell-based; details: dose 15-45 nmol/L
SGC-7901 [25] = assay: Induction of G2/M phase cell cycle arrest in human SGC-7901 cells assessed as increase in p-Histone H3 expression at 15 to 45 nmol/L measured after 48 hrs by Western blot analysis; assay type: functional, cell-based; details: dose 15-45 nmol/L
MGC-803 [26] = assay: Activation of LATS in human MGC-803 cells assessed as increase in LATS phosphorylation measured after 48 hrs by Western blot analysis; assay type: cell-based; details: filed as activator, dose 15-45 nmol/L, DDE = dose-dependent effect
SGC-7901 [27] = assay: Induction of apoptosis in human SGC-7901 cells assessed as increase in cleaved PARP expression at 15 to 45 nmol/L measured after 48 hrs by Western blot analysis; assay type: functional, cell-based; details: dose 15-45 nmol/L
MGC-803 [28] = assay: Induction of apoptosis in human MGC-803 cells assessed as decrease in Bcl-xl protein expression measured after 48 hrs by Western blot analysis; assay type: functional, cell-based; details: dose 15-45 nmol/L, DDE = dose-dependent effect
MGC-803 [29] = assay: Induction of morphological changes in human MGC-803 cells assessed as decrease in density at 15 to 45 nmol/L measured after 48 hrs by bright field microscopic analysis; assay type: functional, cell-based; details: dose 15-45 nmol/L
Tubulin (Homo sapiens) [30] = biological target: T1, Tubulin (Homo sapiens); assay: Induction of microtubule disruption in human SGC-7901 cells at 25 nmol/L measured after 48 hrs by DAPI staining based immunofluorescence assay; assay type: cell-based
SGC-7901 [31] = assay: Induction of cell cycle arrest in human SGC-7901 cells assessed as increase in G2/M phase cells at 45 nmol/L measured after 24 hrs by flow cytometry (reference value: 7.04%); assay type: functional
SGC-7901 [32] = assay: Activation of LATS in human SGC-7901 cells assessed as increase in LATS phosphorylation measured after 48 hrs by Western blot analysis; assay type: cell-based; details: filed as activator, dose 15-45 nmol/L, DDE = dose-dependent effect

C/C=C/C(=O)N(Cc1ccc(OC)c(O)c1)c1cc(OC)c(OC)c(OC)c1
inhibition (MGC-803 [1]): Dde
Activity (MGC-803 [2]): Active
Activity (MGC-803 [3]): Active
Activity (SGC-7901 [4]): Active
Activity (SGC-7901 [5]): Active
Activity (MGC-803 [6]): Active
Activity (SGC-7901 [7]): Active
Activity (SGC-7901 [8]): Dde
Activity (SGC-7901 [9]): Active
Activity (SGC-7901 [10]): Dde
Activity (SGC-7901 [11]): Dde
Activity (MGC-803 [12]): Active
Activity (MGC-803 [13]): Active
Activity (MGC-803 [14]): Dde
Activity (SGC-7901 [15]): Dde
Activity (Tubulin (Homo sapiens) [16]): Dde
Activity (MGC-803 [17]): Dde
Activity (MGC-803 [18]): Dde
IC50 (KYSE-450): 67 nM
Activity (SGC-7901 [19]): Dde
Activity (SGC-7901 [20]): Active
Activity (MGC-803 [21]): Dde
IC50 (NCI-H520): 52 nM
Activity (SGC-7901 [22]): Tde
IC50 (HCT-116): 55 nM
Activity (MGC-803 [23]): Dde
Activity (MGC-803 [24]): Active
Activity (SGC-7901 [25]): Active
Activity (MGC-803 [26]): Dde
Activity (SGC-7901 [27]): Active
Activity (MGC-803 [28]): Dde
Activity (MGC-803 [29]): Active
Activity (Tubulin (Homo sapiens) [30]): Active
Activity (SGC-7901 [31]): 80.89%
Activity (SGC-7901 [32]): Dde
